“Also recorded” adds a separate entry of the source.
Assays:
[1] = test system: EGFRm parental cells (HCC2279, HCC2935, HCC4006, II-18, NCI-H1975 and PC9); test: Incucyte Caspase-3/7 apoptosis assay in EGFRm parental cell lines; type: cell-based, human; settings: panel of 6 EGFRm cell lines; osimertinib 160 nM + Smac mimetic 1 μM vs osimertinib monotherapy; 48 h, normalised to DMSO
Procedure: Data was calculated as the number of apoptotic events divided by cell confluence, and normalised to the values for DMSO control. Data are presented on a log scale to better visualize all cell lines.
FIG. 3: Multiple Smac mimetic molecules enhance osimertinib-induced apoptosis in NCI-H1975 and PC9 cells Caspase-3/7 activation, a direct readout of apoptotic initiation was measured after 48 h of treatment with either osimertinib monotherapy or its combination with 4 distinct Smac mimetic small molecules in NCI-H1975 and PC9 cells. Data was calculated as the number of apoptotic events divided by cell confluence, and normalised to the values for DMSO control.
PC9 is a cell line derived from human lung adenocarcinoma harbouring the activating mutation in EGFR del E746_A750 (Ex19-del). HCC2935 is a cell line derived from a pleural effusion of human lung adenocarcinoma harbouring the activating mutation in EGFR del E746_T751 (Ex19-del). […]
EGFRm parental cells (HCC2279, HCC2935, HCC4006, II-18, NCI-H1975 and PC9) were seeded in 96 well plated at a concentration of 5000 cells/well. […] Cells were then placed on the Incucyte S3 imaging system and both cell confluence and green fluorescence were measured, every 4 hours. After 96 h the experiment was terminated, and apoptosis values calculated by dividing the number of individual green points (apoptosis events) by cell confluence. […]

[2] = test system: PC9, HCC2935 and NCI-H1975 cells; test: Incucyte cell confluence: formation and regrowth of osimertinib drug tolerant persister cells; type: cell-based, human
Procedure: HCC2935, NCI-H1975 and PC9 cells were treated with osimertinib, AZD5582 or the combination of the two agents for 10 days, after which time drug was removed to allow regrowth of the cells. Cell confluence was measured on the Incucyte imaging platform as a surrogate for cell number.
Representative images were taken from the cell growth experiments in PC9 and HCC2935 cell lines described in FIG. 4. Cells treated for 10 days with either osimertinib alone or osimertinib in combination with AZD5582, at which time drug was removed from 7 days.
FIG. 6: osimertinib DTPs are sensitive to Smac mimetic treatment. Parental PC9 cells were treated with the combination of osimertinib and 4 distinct Smac mimetics to determine the rate of DTP survival and re-growth. Cell confluence was measured on the Incucyte imaging platform as a surrogate for DTP number.
PC9 is a cell line derived from human lung adenocarcinoma harbouring the activating mutation in EGFR del E746_A750 (Ex19-del). HCC2935 is a cell line derived from a pleural effusion of human lung adenocarcinoma harbouring the activating mutation in EGFR del E746_T751 (Ex19-del). HCC2279 is a cell line derived from a human lung adenocarcinoma bearing the activating mutation in EGFR del Em746_A750. HCC4006 is a cell line derived from a human lung adenocarcinoma bearing the activating mutation in EGFR del E746_A750. […]

[3] = test system: subcutaneous PC9 model in nude mice; test: PC9 xenograft tumour growth inhibition and re-growth in vivo
Procedure: Tumour growth inhibition following dosing of vehicle, osimertinib 25 mg/kg PO QD, AZD5582 2 mg/kg IV QW, or the combination of the two agents for 3 weeks followed by a period of re-growth in the subcutaneous, PC9 model in nude mice. Data are represented as mean ±SEM (n=8 per group) or as tumour volume of individual mouse.
Tumour growth inhibition following dosing of vehicle for 3 weeks, osimertinib 25 mg/kg PO QD for 6 weeks, or osimertinib 25 mg/kg PO QD for 3 weeks followed by the combination of osimertinib 25 mg/kg PO QD and AZD5582 2 mg/kg IV QW for 3 weeks followed by a period of re-growth in the subcutaneous, PC9 model in nude mice. Data are represented as mean±SEM (n=8 per group) or as tumour volume of individual mouse.

[4] = test system: c-IAP1 and c-IAP2 mRNA (BIRC2 and BIRC3) in PC9, HCC2935 and NCI-H1975 cell lines; test: RNAseq gene expression of c-IAP1 and c-IAP2 mRNA in EGFRm cell lines after osimertinib treatment; type: cell-based, human; settings: osimertinib acute (24 h) or chronic (14 d, DTP) vs untreated (DMSO), particularly chronic schedule
Procedure: FIG. 1: A subset of EGFRm NSCLC cell lines upregulate the expression of c-IAP1 and c-IAP2 mRNA after prolonged treatment with osimertinib. RNA sequencing (RNAseq) was performed in cells chronically treated with osimertinib (14 days) and compared to untreated (DMSO) or acutely treated (24 h) cells. Levels of BIRC2 mRNA (c-IAP1) and BIC3 mRNA (c-IAP2) were plotted on a log 2 scale.
PC9 is a cell line derived from human lung adenocarcinoma harbouring the activating mutation in EGFR del E746_A750 (Ex19-del). HCC2935 is a cell line derived from a pleural effusion of human lung adenocarcinoma harbouring the activating mutation in EGFR del E746_T751 (Ex19-del). HCC2279 is a cell line derived from a human lung adenocarcinoma bearing the activating mutation in EGFR del Em746_A750. HCC4006 is a cell line derived from a human lung adenocarcinoma bearing the activating mutation in EGFR del E746_A750. II-18 is a cell line derived from a human lung adenocarcinoma bearing the activating mutation in EGFR L858R. NCI-H1975 is a cell line derived from a human lung adenocarcinoma bearing the activating mutation in EGFR L858R and the gatekeeper mutation in EGFR T790M.
The purpose of this experiment was to use RNAseq to analyse gene expression in EGFRm cell lines treated both chronically (14 d) or acutely (24 h) with osimertinib.

SMILES | number of apoptotic events (Caspase-3/7 activation) normalised to cell confluence [1] | percentage confluency (a measure of cell growth) ([2]; PC9, HCC2935 or NCI-H1975, 10 days combination with osimertinib (500 nM) then drug removal, vs 10 days osimertinib alone) | regrowth of cells after drug removal (representative images) ([2]; PC9 and HCC2935, 10 days osimertinib + AZD5582, then drug removed for 7 days) | tumour growth inhibition / regrowth after treatment release ([3]; minimal residual disease: osimertinib 21 days, then osimertinib + AZD5582 2 mg/kg IV QW 21 days, vs osimertinib alone 42 days, 2 mg/kg) | tumour growth inhibition / regrowth after treatment release ([3]; osimertinib 25 mg/kg PO QD + AZD5582 2 mg/kg IV QW for 21 days vs osimertinib alone for 21 days) | mRNAs coding for c-IAP1 and c-IAP2 (BIRC2 and BIRC3) expression [4]
CN[C@@H](C)C(=O)N[C@H](C(=O)N1CCC[C@H]1C(=O)N[C@H]1c2ccccc2C[C@H]1OCC#CC#CCO[C@@H]1Cc2ccccc2[C@@H]1NC(=O)[C@@H]1CCCN1C(=O)[C@@H](NC(=O)[C@H](C)NC)C1CCCCC1)C1CCCCC1 [AZD5582] | enhances osimertinib-induced apoptosis | lower percentage confluency; also recorded: enhances the antiproliferative effects of osimertinib | fail to regrow after drug removal | delay of regrowth; also recorded: enhances the antiproliferative effects of osimertinib | delay of regrowth; also recorded: enhances the antiproliferative effects of osimertinib | 
C=CC(=O)Nc1cc(Nc2nccc(-c3cn(C)c4ccccc34)n2)c(OC)cc1N(C)CCN(C)C [osimertinib, N-(2-{2-dimethylaminoethyl-methylamino}-4-methoxy-5-{[4-(1-methylindol-3-yl)pyrimidin-2-yl]amino}phenyl) prop-2-enamide] |  |  |  |  |  | significantly upregulated
